Data set [1] has as its target GABA-A receptor; anion channel. The data set can be described thus: Inhibition of rat GABAA receptor. The format is protein-complex assay.
In the next data set the target is Cytochrome P450 3A4 (Homo sapiens, UniProt P08684). The data set can be described thus: Activation of CYP34A in human hepatocyte using midazolam as substrate preincubated for 5 days followed by substrate addition and measured after 1 hr by LC-MS/MS analysis. The format is ADME, cell-based.
A short description of data set [2]: AUC (0 to infinity) in Sprague-Dawley rat at 3 mg/kg,po by LC-MS/MS analysis. The class given is ADME, organism-based. Also on record: dose 3 mg/kg, route po. To be noted: in vivo.
The next data set addresses T1, Cytochrome P450 2B6 (Homo sapiens, UniProt P20813).
T1 sequence (P20813 whole entry): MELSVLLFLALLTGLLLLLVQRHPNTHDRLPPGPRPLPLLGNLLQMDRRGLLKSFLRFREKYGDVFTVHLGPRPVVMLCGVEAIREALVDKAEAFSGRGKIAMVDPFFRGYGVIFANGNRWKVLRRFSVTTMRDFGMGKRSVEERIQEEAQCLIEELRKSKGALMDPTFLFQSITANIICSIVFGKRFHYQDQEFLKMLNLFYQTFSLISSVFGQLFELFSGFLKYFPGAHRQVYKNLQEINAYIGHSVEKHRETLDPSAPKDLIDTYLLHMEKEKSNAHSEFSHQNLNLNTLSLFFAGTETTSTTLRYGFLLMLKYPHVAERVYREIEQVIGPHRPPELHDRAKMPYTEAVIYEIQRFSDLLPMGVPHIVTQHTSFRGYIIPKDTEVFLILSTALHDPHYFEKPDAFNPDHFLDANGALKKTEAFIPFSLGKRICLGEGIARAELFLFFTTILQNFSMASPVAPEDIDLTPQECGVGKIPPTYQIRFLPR
The data set can be described thus: Activation of CYP2B6 in human hepatocyte using bupropion as substrate preincubated for 5 days followed by substrate addition and measured after 1 hr by LC-MS/MS analysis. The class given is ADME, cell-based.

Data set [3] deals with T2, Cytochrome P450 1A2 (Homo sapiens, UniProt P05177).
T2 sequence (P05177 whole entry): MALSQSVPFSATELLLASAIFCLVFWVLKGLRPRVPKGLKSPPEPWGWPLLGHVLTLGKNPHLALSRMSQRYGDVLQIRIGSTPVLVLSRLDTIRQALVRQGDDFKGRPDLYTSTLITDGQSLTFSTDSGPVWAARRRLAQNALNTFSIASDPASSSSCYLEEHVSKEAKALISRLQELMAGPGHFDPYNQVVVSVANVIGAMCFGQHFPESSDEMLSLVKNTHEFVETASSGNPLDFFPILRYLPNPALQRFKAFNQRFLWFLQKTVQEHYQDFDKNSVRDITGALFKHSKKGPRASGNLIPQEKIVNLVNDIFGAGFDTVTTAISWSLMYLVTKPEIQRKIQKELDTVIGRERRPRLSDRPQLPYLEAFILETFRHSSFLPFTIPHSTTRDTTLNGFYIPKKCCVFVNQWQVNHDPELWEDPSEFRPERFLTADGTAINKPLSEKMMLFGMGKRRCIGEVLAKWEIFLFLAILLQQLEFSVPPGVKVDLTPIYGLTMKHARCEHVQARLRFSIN
The data set can be described thus: Inhibition of CYP1A2 in human liver microsomes using phenacetin as substrate incubated for 15 mins in presence of NADPH by LC/MS/MS analysis. The class given is ADME, Microsome. A general note: Liver microsomes are a subcellular fraction often used to study metabolism.

The nature of data set [4]: Toxicity in rat assessed as effect on somatomotor parameters at 56.6 mg/kg, po measured after 6 hrs by Irwin test. To be noted: in vivo. The format is organism-based.
Data set [5] has as its target T2, Cytochrome P450 1A2. The data set can be described thus: […] of human CYP1A2 mediated drug metabolism incubated for 5 mins followed by NADPH addition measured after 1 hr by LC-UV/MS analysis relative to control. The format is ADME. To be noted: recombinant enzyme, 1.083 h, time 65 min.
Data set [6] deals with Rattus norvegicus. The data set can be described thus: Antipsychotic activity in amphetamine-induced hyperlocomotion activity in rat assessed as minimum effective dose at 1 administered orally preincubated for 30 mins followed by amphetamine addition and measured after 60 mins by open field test. The format is functional. To be noted: 1.5 h, route po, time 90 min, read-out: MED.

A further data set relates to CHO. Description: Positive allosteric modulator activity at cynomolgus monkey M4 receptor expressed in CHO cells co-expressing Gqi5 assessed as maximal response to ACh by calcium mobilization assay relative to contol. The class given is cell-based. To be noted: Macaca fascicularis, filed as positive allosteric modulator. On the technique in general: A change in cytosolic calcium serves as a functional read-out for many receptors and channels.

Data set [7] in a line: Apparent permeability across apical to basolateral side in human Caco-2 cells. The class given is ADME, cell-based. For orientation: Caco-2 monolayers are a common model of the intestinal barrier.
The nature of data set [8]: Ratio of drug concentration in Beagle dog brain to plasma at 3 mg/kg, po by LC-MS/MS analysis. To be noted: read-out: BPR. The class given is ADME, organism-based, Canis lupus familiaris.
Data set [9] is described as follows: Positive allosteric modulator activity at cynomolgus monkey M2 receptor expressed in CHO cells co-expressing Gqi5 in presence of EC20 concentration of acetylcholine by calcium mobilization assay. The format is cell-based. To be noted: Macaca fascicularis.
A further data set concerns the target Cytochrome P450 2D6 (Homo sapiens, UniProt P10635). The data set can be described thus: Inhibition of CYP2D6 in human liver microsomes using dextromethorphan as substrate incubated for 15 mins in presence of NADPH by LC/MS/MS analysis. The class given is ADME, Microsome.
Data set [10] is described as follows: Plasma protein binding in rat assessed as unbound fraction incubated for 4 hrs by LC/MS/MS analysis. The format is ADME, cell-free.
A short description of data set [11]: Positive allosteric modulator activity at dog M2 receptor expressed in CHO cells co-expressing Gqi5 assessed as maximal response to ACh by calcium mobilization assay. The format is cell-based.
Data set [12] in a line: Plasma protein binding in cynomolgus monkey assessed as unbound fraction incubated for 4 hrs by LC/MS/MS analysis. The class given is ADME, cell-free, Macaca fascicularis.
The nature of data set [13]: Terminal unbound plasma concentration in rat model of amphetamine-induced hyperlocomotion activity at 1 to 10 mg/kg, po measured after 1.5 hrs. The format is ADME, organism-based. To be noted: in vivo, dose 1-10 mg/kg.
For another data set, the target named is T3, CYP1A2 (Homo sapiens, UniProt P05177).
T3 sequence (P05177 whole entry): T2 sequence (P05177 whole entry)
The data set can be described thus: Activation of CYP1A2 in human hepatocyte using phenacetin as substrate preincubated for 5 days followed by substrate addition and measured after 1 hr by LC-MS/MS analysis relative to control. To be noted: hepatocytes, probe phenacetin, time 121 hrs. The class given is ADME, cell-based.

The nature of data set [14]: Elimination half life in Sprague-Dawley rat at 3 mg/kg,po or 1 mg/kg,iv by LC-MS/MS analysis. The format is ADME, organism-based. To be noted: in vivo, read-out: beta t1/2 (converted).
Data set [15] can be described thus: Plasma protein binding in human assessed as unbound fraction incubated for 4 hrs by LC/MS/MS analysis. The class given is ADME, cell-free.
A short description of data set [16]: AUC (0 to infinity) in Beagle dog at 3 mg/kg,po by LC-MS/MS analysis. The class given is ADME, organism-based, Canis lupus familiaris. The arrangement: dose 3 mg/kg, route po. To be noted: in vivo.
Data set [17] in a line: Elimination half life in Cynomolgous monkey at 0.2 mg/kg,iv by LC-MS/MS analysis. To be noted: cynomolgus monkey, in vivo, read-out: beta t1/2 (converted).
The test system of data set [18] is Rattus norvegicus. The data set can be described thus: Antipsychotic activity in MK-801-induced hyperlocomotion activity in rat assessed as minimum effective dose administered orally preincubated for 30 mins followed by MK-801 addition and measured after 60 mins by open field test. The class given is functional. To be noted: 1.5 h, route po, time 90 min, read-out: MED.

A word on the IC50: it is the concentration at which inhibition is half-maximal. Broadly, the EC50 is the concentration giving half of the maximal effect. By AUC(0-inf) is commonly meant total exposure, with the tail of the curve extrapolated. Usually Papp A→B stands for the apparent permeability from the apical to the basolateral side of a cell layer. Broadly, the fraction unbound is the share of the substance not bound to proteins or other matrix. As usually defined, the Emax is the greatest response seen or fitted, relative to the assay's reference.

Where only a bound is given, the exact number is not on record here.

Cytochrome P450 3A4, sequence (P08684 whole entry): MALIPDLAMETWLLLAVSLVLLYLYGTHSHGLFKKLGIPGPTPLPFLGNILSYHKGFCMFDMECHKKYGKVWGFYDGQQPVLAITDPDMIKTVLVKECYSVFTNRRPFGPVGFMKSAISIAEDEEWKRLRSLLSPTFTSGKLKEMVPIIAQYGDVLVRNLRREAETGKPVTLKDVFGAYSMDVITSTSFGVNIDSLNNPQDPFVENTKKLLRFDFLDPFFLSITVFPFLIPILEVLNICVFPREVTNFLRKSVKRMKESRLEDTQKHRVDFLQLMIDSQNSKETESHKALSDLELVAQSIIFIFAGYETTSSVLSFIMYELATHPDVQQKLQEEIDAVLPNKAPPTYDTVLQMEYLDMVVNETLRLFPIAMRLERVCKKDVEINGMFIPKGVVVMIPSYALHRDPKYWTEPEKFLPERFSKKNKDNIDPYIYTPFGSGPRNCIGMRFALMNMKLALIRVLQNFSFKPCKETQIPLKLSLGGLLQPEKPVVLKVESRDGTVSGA
Cytochrome P450 2D6, sequence (P10635 whole entry): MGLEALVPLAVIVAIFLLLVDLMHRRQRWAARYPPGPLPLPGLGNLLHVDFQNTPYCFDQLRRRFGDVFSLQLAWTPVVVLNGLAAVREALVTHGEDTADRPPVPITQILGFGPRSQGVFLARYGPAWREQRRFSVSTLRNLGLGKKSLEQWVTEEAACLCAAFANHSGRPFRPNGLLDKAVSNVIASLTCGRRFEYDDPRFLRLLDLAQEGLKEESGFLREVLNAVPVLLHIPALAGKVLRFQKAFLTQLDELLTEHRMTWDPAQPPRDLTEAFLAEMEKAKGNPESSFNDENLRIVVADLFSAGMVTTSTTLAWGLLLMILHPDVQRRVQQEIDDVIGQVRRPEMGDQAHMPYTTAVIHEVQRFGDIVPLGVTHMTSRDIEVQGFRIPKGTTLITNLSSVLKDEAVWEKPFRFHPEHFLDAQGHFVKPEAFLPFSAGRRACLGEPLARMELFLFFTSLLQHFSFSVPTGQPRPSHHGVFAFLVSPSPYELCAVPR

With `COc1ccc(CNC(=O)c2sc3nnc(C)c(C)c3c2N)cc1F`, the IC50 in data set [1] was 1.2 µM; on Cytochrome P450 1A2 [3], greater than 30 µM; on Cytochrome P450 2D6 it was greater than 30 µM. In addition, the concentration for a half-maximal effect (EC50) is greater than 50 µM at Cytochrome P450 3A4, greater than 50 µM at Cytochrome P450 2B6, greater than 30 µM in [9] and greater than 30 µM in data set [11]. Also, the AUC(0-inf) in data set [2] amounted to 3.8 µM·h; in data set [16], 0.59 µM·h. Besides, the Activity entry is “Non-Toxic” in data set [4], 21.4% on Cytochrome P450 1A2 [5] and 74% with CHO. For the same molecule, the minimal effective dose with Rattus norvegicus [6] was determined as 10 mg/kg; in the data set with Rattus norvegicus [18] it was 30 mg/kg. Also, the apical-to-basolateral permeability (Papp A→B) in [7] stood at 31 ×10⁻⁶ cm/s. For the same molecule, the Kp in data set [8] is 1. Besides, the fraction unbound at 4 h was determined as 0.031 in data set [10], 0.091 in data set [12] and 0.054 in [15]. In data set [13], the “Cp(f)” value stood at 60 nM. This molecule returned an Emax at 1 h on CYP1A2 of no more than 1%. For the same molecule, the results for the half-life in [14] and in [17] were 4.2 h and 0.48 h, respectively.

(Values after ChEMBL document CHEMBL5252536, “Discovery of VU0467485/AZ13713945: An M4 PAM Evaluated as a Preclinical Candidate for the Treatment of Schizophrenia” (ACS Med Chem Lett, 2017).)
